Reference: US20210188843A1, “QUINOLINE COMPOUNDS AND THEIR PREPARATION AND USE AS ANTIMALARIAL AGENTS” (The United States of America,as represented by the …, priority 2018, published 2021)
In brackets after ≈: the same amount, converted by molar mass.

Key:
[1] = Microsomal stability (rat); type: in vitro ADME; details: rat microsomes, Table 1, read-out: Microsomal Stability (rat) T1/2
Solubility pH 7.4 = type: physicochemical; details: aqueous buffer, Table 1
[2] = test system: Asexual parasites of P. falciparum strain 3D7; test: In vitro drug activity on asexual parasites (SYBR Green assay); type: cell-based; details: Plasmodium falciparum; Table 1; P. falciparum 3D7 asexual stage, 72 h; read-out: Asexual EC50
Experimental: Cell culture. Asexual parasites of P. falciparum strain 3D7 were cultured as described previously [Trager W, et al., Journal of Parasitology 2005, 91: 484-486]. Stage III-V gametocytes were selected and enriched with 3-day treatment with 50 mM N-acetylglucosamine (NAG) and the following Percoll density gradient centrifugation after gametocyte production [Tanaka T Q, et al., Molecular and Biochemical Parasitology, 2011, 177: 160-163]. Gametocytes of HB3 and Dd2 strains were produced and then set up for assay in a similar process. HepG2 cells (ATCC, cat. no. 77400) were cultured in 175-cm^2 tissue culture flasks with 30 ml growth medium at 37° C. in a 5% CO2 humidified atmosphere. Growth medium was made with Dulbecco's Modified Eagle Medium with 10% fetal bovine serum (FBS). Growth medium was replaced every other day and cells were passed at 75% confluence.
Asexual parasites of P. falciparum strain 3D7 were cultured as described previously (Trager, W. et al., J. Parasitol. 2005, 91(3): 484-486). Drug activity on asexual stage parasites was tested using a SYBR Green assay as described previously (Eastman, R. T. et al., Antimicrob. Agents Chemother. 2013, 57(1): 425-435; Smilkstein, M. et al., Antimicrob. Agents Chemother. 2004, 48(5): 1803-1806). Briefly, parasites were diluted to 0.5% parasitemia in complete culture medium with 2% hematocrit and drugs diluted in DMSO (<0.5%) and were loaded into a 96-well plate (200 μl/well). No drug and RBC alone wells were included as positive and background controls, respectively, and each testing condition was examined in duplicated. After 72 h incubation under the standard culture condition and a freeze-thaw lysis step at −80° C. and room temperature, 100 μl/well of lysis buffer containing SYBR Green I was added to the parasite culture and incubated for 30 min at room temperature. The fluorescence of each well was measured at 520 nm following excitation at 490 nm using a FLUOstar Optima™ microplate reader (BMG Labtech).
Compounds were screened against gametocytes and asexual parasites as described in Examples 1 and 2.

Structure (SMILES)	half-life [1] [min]	solubility (Solubility pH 7.4) [µg/mL]	EC50 [2] [µM]
Cn1c(=N)n(-c2ccccc2)c2c3cc(-c4ccc(Cl)cc4)ccc3ncc21 [Compound 63, 8-(4-chlorophenyl)-3-methyl-1-phenyl-1,3-dihydro-2H-imidazo[4,5-c]quinolin-2-imine]	> 30	5.7 (≈ 14.8 µM)	1.04
COc1cccc(-n2c(=N)n(C)c3cnc4ccc(-c5ccc(Cl)cc5)cc4c32)c1 [Compound 64, 8-(4-chlorophenyl)-1-(3-methoxyphenyl)-3-methyl-1,3-dihydro-2H-imidazo[4,5-c]quinolin-2-imine]	> 30	20.8 (≈ 50.1 µM)	1.3
Cc1cccc(-n2c(=N)n(C)c3cnc4ccc(-c5ccc(Cl)cc5)cc4c32)c1 [Compound 66, 8-(4-chlorophenyl)-3-methyl-1-(m-tolyl)-1,3-dihydro-2H-imidazo[4,5-c]quinolin-2-imine]	> 30	4 (≈ 10 µM)	0.382
Cc1c(C#N)cccc1-n1c(=N)n(C)c2cnc3ccc(-c4ccc(Cl)cc4)cc3c21 [Compound 69, 3-(8-(4-chlorophenyl)-2-imino-3-methyl-2,3-dihydro-1H-imidazo[4,5-c]quinolin-1-yl)-2-methylbenzonitrile]	> 30	< 1	0.207
Cc1ccc(-n2c(=N)n(C)c3cnc4ccc(-c5ccc(Cl)cc5)cc4c32)cc1C#N [Compound 70, 5-(8-(4-chlorophenyl)-2-imino-3-methyl-2,3-dihydro-1H-imidazo[4,5-c]quinolin-1-yl)-2-methylbenzonitrile]	> 30	< 1	0.443
Cc1cc(C#N)cc(-n2c(=N)n(C)c3cnc4ccc(-c5ccc(Cl)cc5)cc4c32)c1 [Compound 71, 3-(8-(4-chlorophenyl)-2-imino-3-methyl-2,3-dihydro-1H-imidazo[4,5-c]quinolin-1-yl)-5-methylbenzonitrile]	> 30	< 1	0.511
Cn1c(=N)n(-c2ccc(N3CCNCC3)c(C(F)(F)F)c2)c2c3cc(-c4ccc(Cl)cc4)ccc3ncc21 [Compound 72, 8-(4-chlorophenyl)-3-methyl-1-(4-(piperazin-1-yl)-3-(trifluoromethyl)phenyl)-1,3-dihydro-2H-imidazo[4,5-c]quinolin-2-imine]	> 30	< 1	0.258
CC(=O)c1cccc(-n2c(=N)n(C)c3cnc4ccc(-c5ccc(Cl)cc5)cc4c32)c1 [Compound 74, 1-(3-(8-(4-chlorophenyl)-2-imino-3-methyl-2,3-dihydro-1H-imidazo[4,5-c]quinolin-1-yl)phenyl)ethan-1-one]	> 30	> 42	0.445
Cn1c(=N)n(-c2cccc(S(C)(=O)=O)c2)c2c3cc(-c4ccc(Cl)cc4)ccc3ncc21 [Compound 75, 8-(4-chlorophenyl)-3-methyl-1-(3-(methylsulfonyl)phenyl)-1,3-dihydro-2H-imidazo[4,5-c]quinolin-2-imine]	> 30	11.7 (≈ 25.3 µM)	1.02
Cn1c(=N)n(-c2cccc(S(N)(=O)=O)c2)c2c3cc(-c4ccc(Cl)cc4)ccc3ncc21 [Compound 77, 3-(8-(4-chlorophenyl)-2-imino-3-methyl-2,3-dihydro-1H-imidazo[4,5-c]quinolin-1-yl)benzenesulfonamide]	> 30	6.2 (≈ 13.4 µM)	1.4
Cn1c(=N)n(-c2ccccc2F)c2c3cc(-c4ccc(Cl)cc4)ccc3ncc21 [Compound 80, 8-(4-chlorophenyl)-1-(2-fluorophenyl)-3-methyl-1,3-dihydro-2H-imidazo[4,5-c]quinolin-2-imine]	> 30	12.4 (≈ 30.8 µM)	0.955
Cc1ccccc1-n1c(=N)n(C)c2cnc3ccc(-c4ccc(Cl)cc4)cc3c21 [Compound 81, 8-(4-chlorophenyl)-3-methyl-1-(o-tolyl)-1,3-dihydro-2H-imidazo[4,5-c]quinolin-2-imine]	> 30	> 39	1.64

Continued, values first:

half-life [1] [min]	solubility (Solubility pH 7.4) [µg/mL]	EC50 [2] [µM]	Structure (SMILES)
> 30	> 41	1.67	COc1ccccc1-n1c(=N)n(C)c2cnc3ccc(-c4ccc(Cl)cc4)cc3c21 [Compound 82, 8-(4-chlorophenyl)-1-(2-methoxyphenyl)-3-methyl-1,3-dihydro-2H-imidazo[4,5-c]quinolin-2-imine]
> 30	< 1	0.658	COc1ccc(-n2c(=N)n(C)c3cnc4ccc(-c5ccc(Cl)cc5)cc4c32)cc1C#N [Compound 84, 5-(8-(4-chlorophenyl)-2-imino-3-methyl-2,3-dihydro-1H-imidazo[4,5-c]quinolin-1-yl)-2-methoxybenzonitrile]
6.2	< 1	0.601	CCCCOC(=O)/N=c1\n(C)c2cnc3ccc(-c4ccc(Cl)cc4)cc3c2n1-c1cc(C#N)ccc1C [Compound 89, butyl (E)-(8-(4-chlorophenyl)-1-(5-cyano-2-methylphenyl)-3-methyl-1,3-dihydro-2H-imidazo[4,5-c]quinolin-2-ylidene)carbamate]
> 30	13.6 (≈ 31.1 µM)	0.813	CCn1c(=N)n(-c2cc(C#N)ccc2C)c2c3cc(-c4ccc(Cl)cc4)ccc3ncc21 [Compound 93, 3-(8-(4-chlorophenyl)-3-ethyl-2-imino-2,3-dihydro-1H-imidazo[4,5-c]quinolin-1-yl)-4-methylbenzonitrile]
> 30	< 1	9.17	Cc1ccc(C#N)cc1-n1c(=N)n(Cc2ccccc2)c2cnc3ccc(-c4ccc(Cl)cc4)cc3c21 [Compound 94, 3-(3-benzyl-8-(4-chlorophenyl)-2-imino-2,3-dihydro-1H-imidazo[4,5-c]quinolin-1-yl)-4-methylbenzonitrile]
> 30	27.4 (≈ 60.4 µM)	2.58	Cc1ccc(C#N)cc1-n1c(=N)n(CCO)c2cnc3ccc(-c4ccc(Cl)cc4)cc3c21 [Compound 95, 3-(8-(4-chlorophenyl)-3-(2-hydroxyethyl)-2-imino-2,3-dihydro-1H-imidazo[4,5-c]quinolin-1-yl)-4-methylbenzonitrile]
> 30	> 47	2.63	Cn1c(=N)n([C@H]2CC[C@H](N3CCNCC3)CC2)c2c3cc(-c4ccc(Cl)cc4)ccc3ncc21 [Compound 96, 8-(4-chlorophenyl)-3-methyl-1-((1r,4r)-4-(piperazin-1-yl)cyclohexyl)-1,3-dihydro-2H-imidazo[4,5-c]quinolin-2-imine]
> 30	> 47	5.1	Cn1c(=N)n(C2CCN(C3CCNCC3)CC2)c2c3cc(-c4ccc(Cl)cc4)ccc3ncc21 [Compound 97, 1-([1,4′-bipiperidin]-4-yl)-8-(4-chlorophenyl)-3-methyl-1,3-dihydro-2H-imidazo[4,5-c]quinolin-2-imine]
> 30	> 44	2.55	Cn1c(=N)n(C2CC(N3CCNCC3)C2)c2c3cc(-c4ccc(Cl)cc4)ccc3ncc21 (stereo not drawn) [Compound 98, 8-(4-chlorophenyl)-3-methyl-1-(3-(piperazin-1-yl)cyclobutyl)-1,3-dihydro-2H-imidazo[4,5-c]quinolin-2-imine]
> 30	> 41	3.18	Cc1cccc(C)c1-n1c(=N)n(C)c2cnc3ccc(-c4ccc(Cl)cc4)cc3c21 [Compound 99, 8-(4-chlorophenyl)-1-(2,6-dimethylphenyl)-3-methyl-1,3-dihydro-2H-imidazo[4,5-c]quinolin-2-imine]
> 30	2.2 (≈ 4.54 µM)	0.00307	Cc1ccc(C#N)cc1-n1/c(=N/S(N)(=O)=O)n(C)c2cnc3ccc(-c4ccc(N)nc4)cc3c21 [Compound 101, (8-(6-aminopyridin-3-yl)-1-(5-cyano-2-methylphenyl)-3-methyl-1,3-dihydro-2H-imidazo[4,5-c]quinolin-2-ylidene)sulfonamide]
> 30	22.3 (≈ 57 µM)	4.78	Cn1c(=N)n(C2CCCCC2)c2c3cc(-c4ccc(Cl)cc4)ccc3ncc21 [Compound 102, 8-(4-chlorophenyl)-1-cyclohexyl-3-methyl-1,3-dihydro-2H-imidazo[4,5-c]quinolin-2-imine]
> 30	> 42	0.163	COc1ccc(-c2ccc3ncc4c(c3c2)n(-c2cc(C#N)ccc2C)c(=N)n4C)cn1 [Compound 103, 3-(2-imino-8-(6-methoxypyridin-3-yl)-3-methyl-2,3-dihydro-1H-imidazo[4,5-c]quinolin-1-yl)-4-methylbenzonitrile]
